Like-named read-outs stand apart in the source and are kept apart here.
Columns and labels:
Format in all cases: cell-based
[1] = tested on: tyrosinase [티로시나제(tyrosinase)]; assay: 멜라노사이트에서의 티로시나제 발현 촉진 효과 (western blot, 501mel); conditions: for activity at 100 µM / activity at 50 ppm: IBMX 100 μM, icariside B2 50 ppm, negative control (DMSO 0.1%) = 100, read-out: tyrosinase expression relative to negative control
[2] = tested on: MITF; assay: 멜라노사이트에서의 MITF 발현 촉진 효과 (western blot, 501mel); conditions: for activity at 100 µM / activity at 50 ppm: IBMX 100 μM, icariside B2 50 ppm, negative control (DMSO 0.1%) = 100, read-out: MITF expression relative to negative control
[3] = tested on: melanocytes (melan-a) [멜라닌 세포(melan-a)]; assay: 멜라닌 생성 촉진 효과 시험 (melanin production promoting effect, absorbance at 405 nm); conditions: 3 days

Row | Compound | activity at 100 µM ([1]; 24 h) [%] | activity at 100 µM ([1]; 48 h) [%] | activity at 100 µM ([1]; 72 h) [%] | activity at 100 µM ([2]; 24 h) [%] | activity at 100 µM ([2]; 48 h) [%] | activity at 100 µM ([2]; 72 h) [%] | activity at 100 µM ([3]; 72 h, IBMX 100 μM, 37℃, negative control (0.1% DMSO) = 100, read-out: ratio of melanin quantity to negative control) [%] | tyrosinase protein expression (result in words) ([1]; 50 ppm, 24-72 h) | activity at 50 ppm ([1]; 24 h) [%] | activity at 50 ppm ([1]; 48 h) [%] | activity at 50 ppm ([1]; 72 h) [%] | MITF protein expression (result in words) ([2]; 50 ppm, 24-72 h) | activity at 50 ppm ([2]; 24 h) [%] | activity at 50 ppm ([2]; 48 h) [%] | activity at 50 ppm ([2]; 72 h) [%] | melanin production promoting effect compared with positive control (result in words) ([3]; 100 ppm vs IBMX 100 μM) | activity at 50 ppm ([3]; 72 h, 50 ppm, 37℃, negative control (0.1% DMSO) = 100, read-out: ratio of melanin quantity to negative control) [%] | activity at 100 ppm ([3]; 72 h, 100 ppm, 37℃, negative control (0.1% DMSO) = 100, read-out: ratio of melanin quantity to negative control) [%] | melanin production (result in words) [3]
1 | CC(C)Cn1c(=O)n(C)c(=O)c2[nH]cnc21 [IBMX, 3-isobutyl-1-methylxanthine, reference compound] | 160 | 149 | 298 | 121 | 98 | 224 | 116 | – | – | – | – | – | – | – | – | – | – | – | –
2 | CC(=O)C=CC12OC1(C)CC(OC1OC(CO)C(O)C(O)C1O)CC2(C)C (stereo not shown) [이카리시드 B2, icariside B2] | – | – | – | – | – | – | – | 단백질 발현을 상승시킴 | 126 | 132 | 180 | 단백질 발현을 상승시킴 | 85 | 107 | 115 | 양성대조군보다 높은 멜라닌 생성 촉진 효과 | 103 | 127 | 멜라닌 생성이 늘어났으며
